Test results as given in the NIST ThermoML archive (doi:10.1021/je8008649).
Numbers after ± are expanded uncertainties.

Assay: mn = molality of the nth substance listed, in mol/kg
Conditions: 101 kPa, Liquid

N.N.O=S(=O)(O)O [ammonium sulfate] + O
m1 = 4.655
Conditions	mass density [kg/m3]	viscosity [mPa·s]
293.15 K	1217.66 ± 0.47	–
298.15 K	1215.79 ± 0.47	2.114 ± 0.024
303.15 K	1213.89 ± 0.47	1.944 ± 0.022
308.15 K	1211.94 ± 0.46	1.785 ± 0.021
313.15 K	1209.97 ± 0.46	–

NO.O=S(=O)(O)O [hydroxylammonium hydrogen sulfate] + O
Conditions	mass density, 283.15 K [kg/m3]	mass density, 288.15 K [kg/m3]	mass density, 293.15 K [kg/m3]	mass density, 298.15 K [kg/m3]	mass density, 303.15 K [kg/m3]	mass density, 308.15 K [kg/m3]	mass density, 313.15 K [kg/m3]	viscosity, 298.15 K [mPa·s]	viscosity, 303.15 K [mPa·s]	viscosity, 308.15 K [mPa·s]
m1 = 0.0075	1000.57 ± 0.19	999.95 ± 0.19	999.03 ± 0.19	997.89 ± 0.19	996.46 ± 0.19	994.84 ± 0.19	993 ± 0.19	–	–	–
m1 = 0.0204	–	–	–	–	–	–	–	0.897 ± 0.011	0.806 ± 0.01	0.727 ± 0.009
m1 = 0.038	1003.84 ± 0.19	1003.18 ± 0.19	1002.23 ± 0.19	1001.03 ± 0.18	999.59 ± 0.18	997.95 ± 0.18	996.09 ± 0.18	–	–	–
m1 = 0.0473	–	–	–	–	–	–	–	0.909 ± 0.011	0.814 ± 0.01	0.736 ± 0.01
m1 = 0.0702	1007.27 ± 0.19	1006.56 ± 0.19	1005.58 ± 0.19	1004.34 ± 0.19	1002.88 ± 0.18	1001.17 ± 0.18	999.12 ± 0.18	0.914 ± 0.011	0.821 ± 0.01	0.741 ± 0.01
m1 = 0.2199	1022.47 ± 0.2	1021.57 ± 0.2	1020.43 ± 0.2	1019.05 ± 0.2	1017.48 ± 0.2	1015.7 ± 0.19	1013.04 ± 0.19	–	–	–
m1 = 0.2315	–	–	–	–	–	–	–	0.968 ± 0.012	0.869 ± 0.011	0.787 ± 0.01
m1 = 0.3709	1036.87 ± 0.22	1035.81 ± 0.22	1034.52 ± 0.21	1033.05 ± 0.21	1031.38 ± 0.21	1029.51 ± 0.21	1027.24 ± 0.21	1.019 ± 0.013	0.912 ± 0.011	0.823 ± 0.01
m1 = 0.4314	1042.64 ± 0.22	1041.22 ± 0.22	1039.97 ± 0.22	1038.36 ± 0.22	1036.73 ± 0.21	1034.77 ± 0.21	1032.85 ± 0.21	1.035 ± 0.013	0.927 ± 0.012	0.838 ± 0.011
m1 = 0.5334	1051.59 ± 0.23	1050.39 ± 0.23	1048.98 ± 0.23	1047.39 ± 0.23	1045.61 ± 0.22	1043.69 ± 0.22	1041.6 ± 0.22	1.069 ± 0.013	0.961 ± 0.012	0.867 ± 0.011
m1 = 0.8069	1075.32 ± 0.26	1073.9 ± 0.26	1071.96 ± 0.26	1070.2 ± 0.25	1068.3 ± 0.25	1066.3 ± 0.25	1064.15 ± 0.25	1.167 ± 0.014	1.053 ± 0.013	0.95 ± 0.012
m1 = 0.9684	1088.31 ± 0.28	1086.8 ± 0.28	1085.12 ± 0.27	1083.29 ± 0.27	1081.32 ± 0.27	1079.23 ± 0.26	1076.98 ± 0.26	–	–	–
m1 = 1.044	–	–	–	–	–	–	–	1.256 ± 0.015	1.128 ± 0.014	1.02 ± 0.013
m1 = 1.165	1103.23 ± 0.3	1101.58 ± 0.3	1099.81 ± 0.3	1097.89 ± 0.29	1095.85 ± 0.29	1093.7 ± 0.29	1091.42 ± 0.28	–	–	–
m1 = 1.324	–	–	–	–	–	–	–	1.369 ± 0.016	1.237 ± 0.015	1.112 ± 0.014
m1 = 1.478	1126.68 ± 0.34	1124.91 ± 0.33	1123 ± 0.33	1120.96 ± 0.33	1118.82 ± 0.32	1116.5 ± 0.32	1113.63 ± 0.32	–	–	–
m1 = 1.589	–	–	–	–	–	–	–	1.483 ± 0.018	1.333 ± 0.016	1.201 ± 0.015
m1 = 1.851	1151.94 ± 0.38	1149.99 ± 0.37	1147.92 ± 0.37	1145.49 ± 0.37	1142.34 ± 0.36	1141.16 ± 0.36	1138.36 ± 0.35	–	–	–
m1 = 1.915	–	–	–	–	–	–	–	1.631 ± 0.019	1.463 ± 0.017	1.319 ± 0.016
m1 = 2.088	–	–	–	–	–	–	–	1.732 ± 0.02	1.542 ± 0.018	1.386 ± 0.017
m1 = 2.461	1188.98 ± 0.43	1186.87 ± 0.43	1184.69 ± 0.43	1182.41 ± 0.42	1180.07 ± 0.42	1177.64 ± 0.42	1175.14 ± 0.41	–	–	–
m1 = 2.847	–	–	–	–	–	–	–	2.123 ± 0.024	1.887 ± 0.022	1.702 ± 0.02
m1 = 2.998	1218.05 ± 0.48	1215.84 ± 0.48	1213.55 ± 0.47	1211.21 ± 0.47	1208.79 ± 0.47	1206.32 ± 0.46	1203.99 ± 0.46	–	–	–
